Values of other authors, collected in patent publication USRE39705E1, “Method of treating glutathione deficient mammals” (Vit-Immune, L.C., priority 1998, dated 2007).

Experiments:
[1] = not given; remark: listed apart in the source

**Q.** For `N[C@@H](CCC(=O)N[C@@H](CS)C(=O)NCC(=O)O)C(=O)O` [glutathione, γ-L-Glutamyl-L-cysteinylglycine], which “absorption of oral supplementation by the mammal's cells” value is on record?
**A.** not well absorbed

**Q.** And the “replenishment of intracellular glutathione losses” value (oral)?
**A.** does not replenish losses inside cells

**Q.** For `NC(=O)CC[C@H](N)C(=O)O` [L-glutamine], which liver glutathione ([1]; after lethal hepatic injury) is on record?
**A.** preserve liver glutathione

**Q.** With `O=C(O)CCCCC1CCSS1` (stereo not drawn) [Alpha lipoic acid, alpha lipoic acid] as the compound, how does the intracellular reduced glutathione ([1]; in vitro and in vivo (literature)) read?
**A.** substantial increase

**Q.** With `N[C@@H](CS)C(=O)O` [Example 1-cysteine, 1-cysteine] as the compound, how does the GSH levels ([1]; substituted into the diet in place of the total protein allowance) read?
**A.** effective in raising GSH levels
